Laboratory results: article PMC6060874, “Alanine scan of sialorphin and its hybrids with opiorphin: synthesis, molecular modelling and effect on enkephalins degradation” (Amino Acids, 2018)

How the values were obtained:
NEP = assay: Degradation of Met-enkephalin incubated with NEP alone (without inhibitor); format: in vitro ADME, porcine; conditions: pig, NEP enzyme extracted from porcine kidney, Met-enkephalin 0.0413 mM, NEP 5.687 nM, Tris–HCl 50 mM pH 7.4, 37 °C, 0–120 min, RP-HPLC, mean ± SEM, triplicate, read-out: t1/2, half-life of Met-enkephalin incubated with NEP alone
Description: (§1) The degradation studies were performed using the NEP enzyme extracted from porcine kidney, acquired from Merck (Warsaw, Poland). Solutions of Met-enkephalin, NEP and inhibitors were prepared by dissolving them in a Tris–HCl buffer (50 mM, pH 7.4). In investigated samples, the concentrations of Met-enkephalin, inhibitors and NEP were, respectively, 0.0413 mM, 0.156 mM and 5.687 nM. The reaction was initiated by addition of enzyme to a solution-containing Met-enkephalin and inhibitor. The samples consisting of the enzyme, Met-enkephalin and inhibitors were incubated over 0, 30, 60, 90, 120 min at 37 °C in a final volume of 300 μL. The reaction was stopped at a predetermined time by placing the tube on ice and acidifying with 30 μL of a 1 M aqueous HCl solution. The aliquots were centrifuged at 14,500 rpm for 20 min. The supernatants were filtered through Millipore Millex-GV syringe filters with 0.22 μm pores (Merck, Warsaw, Poland) and analysed by RP-HPLC on a Phenomenex Gemini-NX C18 column (5 μm, 4.6 mm × 150 mm) using a linear gradient of 3–50% of [B] for 8 min at a flow rate of 2.5 ml/min. Two solvent systems were used: 0.1% TFA in water [A] and 0.1% TFA in acetonitrile [B]. The rate constants of degradation (k) and degradation half-lives (t1/2) were calculated as described elsewhere (Kamysz et al. [2016]; Perlikowska et al. [2012]). All measurements were performed in triplicate. […]

[1] = system: NEP enzyme extracted from porcine kidney; assay: as above; format: in vitro ADME; conditions: printed value is 1000 × k, Met-enkephalin 0.0413 mM, NEP 5.687 nM, Tris–HCl 50 mM pH 7.4, 37 °C, 0–120 min, RP-HPLC, mean ± SEM, triplicate
Description: as §1

**Q.** Which half-life (NEP) does the source give for `CSCC[C@H](NC(=O)[C@H](Cc1ccccc1)NC(=O)CNC(=O)CNC(=O)[C@@H](N)Cc1ccc(O)cc1)C(=O)O` [Met-enkephalin, Met-enkephalin (Tyr–Gly–Gly–Phe–Met)] here?
**A.** The half-life was 27 ± 1 min.

**Q.** And the “1000 × k, degradation rate of Met-enkephalin incubated with NEP alone” value [1]?
**A.** The value was 25.3 ± 1.0 min⁻¹.
